Earlier results, collected in patent publication US7771744B2, “Bazedoxifene acetate formulations” (Wyeth LLC, priority 2005, dated 2010).

What was measured:
[1] = system: MCF-7 cell line (human breast cancer cell line)
uterine response = conditions: preclinical models of uterine stimulation
[2] = system: bone loss and cholesterol; conditions: ovariectomized rat model of osteopenia

SMILES	estrogen antagonist behaviour [1]	stimulation of uterine response (uterine response)	effect on bone loss and cholesterol [2]	solubility in aqueous and organic solvent systems compared with form B
Cc1c(-c2ccc(O)cc2)n(Cc2ccc(OCCN3CCCCCC3)cc2)c2ccc(O)cc12 [bazedoxifene acetate, 1-[4-(2-azepan-1-yl-ethoxy)-benzyl]-2-(4-hydroxy-phenyl)-3-methyl-1H-indol-5-ol acetic acid]	behaves as an estrogen antagonist	little or no stimulation of uterine response	estrogen agonist-like effect in preventing bone loss and reducing cholesterol	–
Cc1c(-c2ccc(O)cc2)n(Cc2ccc(OCCN3CCCCCC3)cc2)c2ccc(O)cc12 [Form A, 1-[4-(2-azepan-1-yl-ethoxy)-benzyl]-2-(4-hydroxy-phenyl)-3-methyl-1H-indol-5-ol acetic acid]	–	–	–	higher solubility
